Measurements: patent EP0326331B1, “Substituted quinolines and cinnolines” (Dow AgroSciences LLC, priority 1988, dated 1989)

What was measured:
Assay type in all cases: in vivo
[1] = test system: southern armyworm (Spodopetra eridania Cramer); assay: Mite/insect screen, SAW; details: percent mortality, SAW; for mortality at 200 ppm / mortality at 400 ppm: Spodoptera eridania, read-out: SAW RESULTS %; for mortality at 400 ppm: SM & MA RATE 400 PPM
In short: (§1)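 Foliar spray to runoff (10 psi), 1 h drying; aqueous dilutions from acetone/alcohol emulsifier stock. Mortality (%) after standard exposure.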

[2] = test system: Puccinia recondita tritici (leaf rust); assay: Test 1 greenhouse foliar spray screen, leaf rust on wheat; details: disease control rating, foliar spray on wheat, 400 ppm (+++ at 100 ppm)
corn rootworm = assay: Mite/insect screen, CRW; details: percent mortality, read-out: CRW RESULTS %; for mortality at 12 ppm: CRW RATE 12.00 PPM; for mortality at 24 ppm: CRW RATE 24.00 PPM
In short: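 Following dissolution in equal parts acetone and alcohol with 23 g/L and 13 g/L emulsifier blends and dilution with water, test solutions were scored for percent mortality at the end of standard exposures.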

[3] = test system: Erysiphe graminis tritici (powdery mildew); assay: Test 1 greenhouse foliar spray screen, powdery mildew on wheat; details: disease control rating, foliar spray on wheat, 400 ppm (+++ at 100 ppm)
[4] = test system: Pseudoperonospora cubensis (downy mildew); assay: Test 1 greenhouse foliar spray screen, downy mildew on squash; details: for DOWN MDEW: disease control rating, foliar spray on squash, 400 ppm (+++ at 100 ppm)
[5] = test system: Twospotted spider mites (Tetranychus urticae Koch); assay: Mite/insect screen, SM; details: for mortality at 200 ppm / mortality at 400 ppm: Tetranychus urticae, read-out: SM RESULTS %; for mortality at 400 ppm: SM & MA RATE 400 PPM
In short: as §1

[6] = test system: melon aphids (Aphis gossypii Glover); assay: Mite/insect screen, MA; details: percent mortality, SAW; for mortality at 200 ppm / mortality at 400 ppm: Aphis gossypii, read-out: MA RESULTS %; for mortality at 400 ppm: SM & MA RATE 400 PPM
In short: as §1

[7] = test system: Cercospora beticola (leaf spot); assay: Test 1 greenhouse foliar spray screen, leaf spot on sugar beet; details: disease control rating, foliar spray on sugar beet, 400 ppm (+++ at 100 ppm)
[8] = test system: Venturia inaequalis (apple scab); assay: Test 1 greenhouse foliar spray screen, apple scab on apple seedling; details: disease control rating, foliar spray on apple seedling, 400 ppm (+++ at 100 ppm)
[9] = test system: Pyricularia oryzae (rice blast); assay: whole plant or invertebrate; details: disease control rating, foliar spray on rice, 400 ppm (+++ at 100 ppm)
[10] = test system: Septoria tritici (leaf blotch); assay: Test 1 greenhouse foliar spray screen, leaf blotch on wheat; details: disease control rating, foliar spray on wheat, 400 ppm (+++ at 100 ppm)
[11] = test system: Botrytis cinerea (gray mold); assay: Test 1 greenhouse foliar spray screen, gray mold on grape berries; details: disease control rating, spray on grape berries, 400 ppm (+++ at 100 ppm)
[12] = percent mortality, SAW, SM & MA RATE 200 PPM
[13] = summary statement in the description

| Compound | mortality at 200 ppm ([1]; SM & MA RATE 200 PPM) | LEAF RUST [2] | mortality at 12 ppm (corn rootworm) | POWD MDEW [3] | DOWN MDEW [4] | mortality at 200 ppm [5, 12] | mortality at 200 ppm ([6]; SM & MA RATE 200 PPM) | LEAF SPOT [7] | APPL SCAB [8] | RICE BLAST [9] | LEAF BLOT [10] | GRAY MOLD [11] | mortality at 400 ppm [1] | mortality at 24 ppm (corn rootworm) | mortality at 400 ppm ([5]; percent mortality, SAW) | mortality at 400 ppm [6] | other results |
| --- | --- | --- | --- | --- | --- | --- | --- | --- | --- | --- | --- | --- | --- | --- | --- | --- | --- |
| Fc1cc(F)c2nccc(NCCc3ccccc3)c2c1 [Example 7, 6,8-difluoro-N-(2-phenylethyl)-4-quinolinamine] | 0% | +++ (90-100% control at 100 ppm) | 0% | + (20-89% control at 400 ppm) | +++ (90-100% control at 100 ppm) | 0% | 0% | - (0-19% control at 400 ppm) | - (0-19% control at 400 ppm) | + (20-89% control at 400 ppm) | +++ (90-100% control at 100 ppm) | - (0-19% control at 400 ppm) | – | – | – | – | – |
| Fc1ccc2c(NCCc3ccccc3)ccnc2c1 [Example 8, 7-fluoro-N-(2-phenylethyl)-4-quinolinamine] | 100% | + (20-89% control at 400 ppm) | 0% | + (20-89% control at 400 ppm) | +++ (90-100% control at 100 ppm) | 0% | 0% | +++ (90-100% control at 100 ppm) | - (0-19% control at 400 ppm) | ++ (90-100% control at 400 ppm) | + (20-89% control at 400 ppm) | - (0-19% control at 400 ppm) | – | – | – | – | – |
| Fc1ccc2nccc(NCCc3ccccc3)c2c1 [Example 9, 6-fluoro-N-(2-phenylethyl)-4-quinolinamine] | 0% | + (20-89% control at 400 ppm) | 0% | + (20-89% control at 400 ppm) | +++ (90-100% control at 100 ppm) | 0% | 0% | - (0-19% control at 400 ppm) | - (0-19% control at 400 ppm) | + (20-89% control at 400 ppm) | - (0-19% control at 400 ppm) | - (0-19% control at 400 ppm) | – | – | – | – | – |
| Fc1cccc2c(NCCc3ccc(I)cc3)ccnc12 [Example 11, 8-fluoro-N-[2-(4-iodophenyl)ethyl]-4-quinolinamine] | 80% | +++ (90-100% control at 100 ppm) | 0% | - (0-19% control at 400 ppm) | ++ (90-100% control at 400 ppm) | 0% | 0% | +++ (90-100% control at 100 ppm) | - (0-19% control at 400 ppm) | ++ (90-100% control at 400 ppm) | - (0-19% control at 400 ppm) | - (0-19% control at 400 ppm) | 100% | 60% | 0% | 0% | activity as miticides [5, 13]: particularly excellent activity |
| Fc1cc(F)c2nccc(NCCc3ccc(Br)cc3)c2c1 [Example 12, N-[2-(4-bromophenyl)ethyl]-6,8-difluoro-4-quinolinamine] | 0% | +++ (90-100% control at 100 ppm) | 0% | + (20-89% control at 400 ppm) | ++ (90-100% control at 400 ppm) | 0% | 0% | +++ (90-100% control at 100 ppm) | - (0-19% control at 400 ppm) | ++ (90-100% control at 400 ppm) | ++ (90-100% control at 400 ppm) | - (0-19% control at 400 ppm) | 100% | 40% | 0% | 0% | – |
| FC(F)(F)c1cccc2c(NCCc3ccc(Br)cc3)ccnc12 [Example 13, N-[2-(4-bromophenyl)ethyl]-8-(trifluoromethyl)-4-quinolinamine] | 0% | ++ (90-100% control at 400 ppm) | 0% | - (0-19% control at 400 ppm) | ++ (90-100% control at 400 ppm) | 0% | 0% | - (0-19% control at 400 ppm) | - (0-19% control at 400 ppm) | ++ (90-100% control at 400 ppm) | - (0-19% control at 400 ppm) | - (0-19% control at 400 ppm) | 0% | 0% | 0% | 0% | – |
| Cc1ccc2nccc(NCCc3ccc(Cl)cc3)c2c1 [Example 14, N-[2-(4-chlorophenyl)ethyl]-6-methyl-4-quinolinamine] | 0% | + (20-89% control at 400 ppm) | 0% | - (0-19% control at 400 ppm) | +++ (90-100% control at 100 ppm) | 0% | 0% | +++ (90-100% control at 100 ppm) | - (0-19% control at 400 ppm) | + (20-89% control at 400 ppm) | - (0-19% control at 400 ppm) | - (0-19% control at 400 ppm) | 0% | 0% | 0% | 0% | activity against downy mildew [4, 13]: particularly excellent activity |
| Cc1cc(C)c2nccc(NCCc3ccc(Cl)cc3)c2c1 [Example 15, N-[2-(4-chlorophenyl)ethyl]-6,8-dimethyl-4-quinolinamine] | 0% | + (20-89% control at 400 ppm) | 0% | - (0-19% control at 400 ppm) | +++ (90-100% control at 100 ppm) | 0% | 0% | +++ (90-100% control at 100 ppm) | + (20-89% control at 400 ppm) | + (20-89% control at 400 ppm) | - (0-19% control at 400 ppm) | - (0-19% control at 400 ppm) | 0% | 0% | 0% | 0% | – |
| COc1ccc2nccc(NCCc3ccc(Cl)cc3)c2c1 [Example 16, N-[2-(4-chlorophenyl)ethyl]-6-methoxy-4-quinolinamine] | 0% | + (20-89% control at 400 ppm) | 0% | - (0-19% control at 400 ppm) | +++ (90-100% control at 100 ppm) | 0% | 0% | +++ (90-100% control at 100 ppm) | - (0-19% control at 400 ppm) | + (20-89% control at 400 ppm) | - (0-19% control at 400 ppm) | - (0-19% control at 400 ppm) | 0% | 0% | 0% | 0% | – |
| Cc1ccc(CCNc2ccnc3c(F)cccc23)cc1 [Example 71, 8-fluoro-N-[2-(4-methylphenyl)ethyl]-4-quinolinamine] | 0% | +++ (90-100% control at 100 ppm) | – | + (20-89% control at 400 ppm) | +++ (90-100% control at 100 ppm) | 0% | 0% | +++ (90-100% control at 100 ppm) | - (0-19% control at 400 ppm) | + (20-89% control at 400 ppm) | + (20-89% control at 400 ppm) | - (0-19% control at 400 ppm) | – | – | – | – | SAW RESULTS % ([1]; SM & MA RATE 200 PPM): 0%; SM RESULTS % [5, 12]: 0%; MA RESULTS % ([6]; SM & MA RATE 200 PPM): 0% |
